The values below come from ChEMBL document CHEMBL3507680, “University of Dundee, Gates Library screen for HepG2 cell viability”.

SMILES strings stand for the structures.

The data set can be described thus: Human HepG2 cell viability assay in 384 well format. Type of data set: toxicity, cell-based. Set-up: dose 125 nL, time 70.5 hour; concentration not given beside the values. Particulars: HepG2 cells, read-out: Inhibition.
On to `Cc1cccc(CN2CCOC(C)(C(=O)N3CCOCC3)C2)n1` (configuration not stated), for which the cytotoxicity at 70.5 h was 11%.

On to `CC(=O)Nc1nc(C2CCN(C(=O)c3ccncc3)CC2)cs1`, for which the cytotoxicity at 70.5 h came out at 24.9%.

With `CC1(C(=O)N2CCOCC2)CN(Cc2c[nH]cn2)CCO1` (configuration not stated), the cytotoxicity at 70.5 h is -0.532%.

`Cc1cc(CN2CCN(S(C)(=O)=O)CC(C(=O)N(C)C)C2)no1` (configuration not stated): the cytotoxicity at 70.5 h stood at 0.351%.

As for `CC(=O)N1CCN(c2ccnc(C)n2)CC(COc2ccccc2)C1` (configuration not stated), the cytotoxicity at 70.5 h is -3.78%.

Consider `NC(=O)C1CN(C(=O)Cc2cccnc2)CCN(C2CCOCC2)C1` (configuration not stated), for which the cytotoxicity at 70.5 h was 0.12%.

Consider `Oc1nc(N2CCOCC2)nc2c1CCN(Cc1ccccc1)CC2`, for which the cytotoxicity at 70.5 h is -1.05%.

For the compound `CC(=O)Nc1nc(C2CCN(C(C)C)CC2)cs1`, the cytotoxicity at 70.5 h is -1.18%.

For `CC(C)C(=O)N1CCCC(c2cncc(Oc3cccnc3)n2)C1` (configuration not stated), the cytotoxicity at 70.5 h is -2.17%.

For `O=C(Cc1ccsc1)N1CCOC(c2nc(-c3ncccn3)no2)C1` (configuration not stated), the cytotoxicity at 70.5 h was -2.86%.

Regarding `Cc1n[nH]c(C)c1-c1nccnc1CC1CCN(C(C)C)CC1`, the cytotoxicity at 70.5 h is 13.4%.

As for `Cc1cc(CCC(=O)N2CCCC2)nc(C2CCCN2)n1` (configuration not stated), the cytotoxicity at 70.5 h was -1.61%.

With `CNC(=O)C1(c2cnccn2)CCCN1C(=O)c1ccc(OC)cc1` (configuration not stated), the cytotoxicity at 70.5 h amounted to 18.7%.

As for `CNC(=O)C1(c2cnccn2)CCCN1C(=O)c1ccc(F)cc1` (configuration not stated), the cytotoxicity at 70.5 h turned out to be 22.8%.

As for `COc1ccc(Oc2nccnc2C2CCN(C(C)=O)CC2)cc1`, the cytotoxicity at 70.5 h was -4.84%.

Consider `CN1CCCCC[C@@H]2[C@@H]1[C@H](c1ccccc1)CN2C(=O)c1cccnc1`, for which the cytotoxicity at 70.5 h stood at 3.63%.

In the case of `CN1CC(c2cc(O)nc(NCc3ccc(Cl)cc3)n2)CC1=O` (configuration not stated), the cytotoxicity at 70.5 h is -5.19%.

As to `CC(=O)N1CCC(c2nccnc2-c2ccc(F)cc2)CC1`, the cytotoxicity at 70.5 h is -0.029%.

As for `COCCC(=O)N1CCC(c2cc(O)n(C)n2)C1` (configuration not stated), the cytotoxicity at 70.5 h was 1.63%.

Take `CC(=O)N1CCC(c2nccnc2-c2ccc(F)c(F)c2)CC1`: the cytotoxicity at 70.5 h is -0.906%.

As for `Nc1nc2nc(C3CCCN(C(=O)c4cnccn4)C3)ccc2s1` (configuration not stated), the cytotoxicity at 70.5 h is -3.81%.

For the compound `CNC(=O)c1ccc(C2CN(C(=O)c3scnc3C)CCO2)nc1` (configuration not stated), the cytotoxicity at 70.5 h is -3.13%.

For the compound `Cc1cccnc1C(=O)N1CCC(Cc2cnc3[nH]ccc3c2)CC1`, the cytotoxicity at 70.5 h was 21.2%.

Take `CNC(=O)C1(c2cnccn2)CCCN1C(=O)c1ncccc1C` (configuration not stated): the cytotoxicity at 70.5 h was -5.43%.

On to `O=S(=O)(N1CCCCC1)N1CCC(Oc2cnccn2)CC1`, for which the cytotoxicity at 70.5 h is -2.24%.

With `O=C(N[C@@H]1CC[C@@H](n2ccnc2)[C@@H]1O)c1cc2c(s1)CCC2`, the cytotoxicity at 70.5 h came out at 1.51%.

For the compound `COc1ccc(CN(C)[C@@H]2CN(C(=O)c3ccnn3C)C[C@H]2O)cc1`, the cytotoxicity at 70.5 h was -3.38%.

On to `CS(=O)(=O)N1CCN(Cc2cccs2)CC(C(N)=O)C1` (configuration not stated), for which the cytotoxicity at 70.5 h is -2.16%.

As for `COc1ccc(CN(C)[C@@H]2CN(C(=O)c3cncs3)C[C@H]2O)cc1`, the cytotoxicity at 70.5 h stood at 0.0164%.

Turning to `COCCN(C(=O)c1ccccn1)c1nc2c(s1)CCc1c-2cnn1C`, the cytotoxicity at 70.5 h is 14.7%.

As for `CN(C)S(=O)(=O)N1CCN(Cc2ccnc(N3CCCC3)n2)CC1`, the cytotoxicity at 70.5 h is -1.31%.

Turning to `Cn1nc(C2CN(C(=O)c3cccnc3)C2)c2nccnc21`, the cytotoxicity at 70.5 h was -3.75%.

As for `Cn1ccc(C(=O)N2CCCC(c3cc(O)n(C)n3)C2)n1` (configuration not stated), the cytotoxicity at 70.5 h came to 28%.

For the compound `COCCN1CCC(c2cncc(-c3ccccc3C)n2)CC1`, the cytotoxicity at 70.5 h was -4.28%.

As for `Cc1ccccc1-c1cncc(C2CCN(Cc3cnn(C)c3)CC2)n1`, the cytotoxicity at 70.5 h is -9.46%.

`Cc1cc(C2CCCN(C(=O)c3cccnc3)C2)ccn1` (configuration not stated): the cytotoxicity at 70.5 h is -11.1%.

On to `CN1CCCC[C@@H]2[C@H]1[C@@H](c1ccccc1)CCN2C(=O)c1cccnc1`, for which the cytotoxicity at 70.5 h was -7.01%.

On to `CN(C)CC(=O)N1CC(c2nn(C)c3nccnc23)C1`, for which the cytotoxicity at 70.5 h was -6.77%.

As to `Cc1cc(C)nc(Nc2cccc(C3CCCN(CC4CC4)C3)n2)n1` (configuration not stated), the cytotoxicity at 70.5 h was -5.69%.

In the case of `CCc1c(C)nc(C2CCCN2C(=O)c2cc(C)no2)nc1O` (configuration not stated), the cytotoxicity at 70.5 h was 10.5%.

For `CCc1c(C)nc2cc(C3CCN(CCc4ccccc4)C3)nn2c1O` (configuration not stated), the cytotoxicity at 70.5 h is -0.223%.

Take `NC(=O)C1CCCN(S(=O)(=O)c2cnn(-c3ccccc3)c2)C1` (configuration not stated): the cytotoxicity at 70.5 h is -1.76%.

With `CC(C)CCN(C)Cn1ncc2cn(-c3ccccc3)nc2c1=O`, the cytotoxicity at 70.5 h came to 14.5%.

Regarding `CCCn1cc(C(=O)NCCS(N)(=O)=O)c2ccccc21`, the cytotoxicity at 70.5 h was 15.9%.

On to `COc1ccc(Cl)cc1NCC(=O)N(Cc1cccnc1)C1CC1`, for which the cytotoxicity at 70.5 h is -7.28%.

On to `CC(c1nc(C2CC2)no1)N1CCN(CCn2ccccc2=O)CC1` (configuration not stated), for which the cytotoxicity at 70.5 h is -4.93%.

For `CCS(=O)(=O)NCCN1CCc2ccc(F)cc2C1C` (configuration not stated), the cytotoxicity at 70.5 h is -4.91%.

Turning to `Cc1nn(C)c(C)c1C1CCCN1c1ncnc2c1CCC2` (configuration not stated), the cytotoxicity at 70.5 h was determined as 1.18%.

As for `CN(CC(=O)NCCc1cc2ccccc2o1)S(C)(=O)=O`, the cytotoxicity at 70.5 h was 13.9%.

With `COCCn1c(C(=O)NCc2n[nH]c(C)n2)cc2ccccc21`, the cytotoxicity at 70.5 h was -0.294%.

`OC1(CNc2ccc(Br)cn2)CCC1`: the cytotoxicity at 70.5 h came to 16.3%.

With `CS(=O)(=O)CCn1ccc(NCc2ccc(C#N)cc2)n1`, the cytotoxicity at 70.5 h was -0.713%.

For `CN(C)c1ccc(C(=O)N2CCCCC2CC(N)=O)c(F)c1` (configuration not stated), the cytotoxicity at 70.5 h was -1.41%.

On to `OC1(CNc2ccc(Br)cn2)CCSCC1`, for which the cytotoxicity at 70.5 h worked out at 15.9%.

Take `Cc1nc(CN(C)C(=O)Nc2cccc(COC(C)C)c2C)no1`: the cytotoxicity at 70.5 h was -4.14%.

On to `Cc1csc(C(C)(C)NCCNS(C)(=O)=O)n1`, for which the cytotoxicity at 70.5 h amounted to 18.5%.

For `Cc1csc(C(C)(C)NCCCS(C)(=O)=O)n1`, the cytotoxicity at 70.5 h is -2%.

As for `CC1c2cc(F)ccc2CCN1CCS(=O)(=O)C(C)C` (configuration not stated), the cytotoxicity at 70.5 h is -3.51%.

For `CNS(=O)(=O)CC1CCCN1c1ccccn1` (configuration not stated), the cytotoxicity at 70.5 h is -4.24%.

Consider `CC(Nc1ccn(CCS(C)(=O)=O)n1)c1ccc(C#N)cc1` (configuration not stated), for which the cytotoxicity at 70.5 h is -1.96%.

Take `CN(C)C(=O)CCCn1ccc(NCc2ccc(C#N)cc2)n1`: the cytotoxicity at 70.5 h was -2.31%.

On to `CC1c2cc(F)ccc2CCN1CCCS(=O)(=O)C(C)C` (configuration not stated), for which the cytotoxicity at 70.5 h is -2.78%.

Regarding `CNC(=O)NCC(=O)N(C)C(c1ccc(Cl)cc1)c1cccnc1` (configuration not stated), the cytotoxicity at 70.5 h came out at 21.3%.

Regarding `O=C1NCCCCC1Sc1ccccc1F` (configuration not stated), the cytotoxicity at 70.5 h was -11.2%.

Turning to `CN(C)c1ncccc1CNCc1cccc(O)c1`, the cytotoxicity at 70.5 h is -12.2%.

Consider `Cc1ccc(CNC(=O)CN(CCC(N)=O)c2ccc(F)cc2)cc1`, for which the cytotoxicity at 70.5 h was -3.51%.

On to `COc1ccc(CCC2CCCCN2)cc1OC` (configuration not stated), for which the cytotoxicity at 70.5 h turned out to be 19.8%.

`N#CCCCS(=O)(=O)NC1(c2cccc(Br)c2)CC1`: the cytotoxicity at 70.5 h is -8.99%.

On to `CCN(CC)C(=O)NC(C)c1ccc(Oc2cccnc2)c(F)c1` (configuration not stated), for which the cytotoxicity at 70.5 h was 16%.

With `Cc1ccc(C(F)(F)F)cc1NC(=O)C1CCCN1` (configuration not stated), the cytotoxicity at 70.5 h is -8.7%.

For `O=C(NCC1(O)CCC1)c1c(O)cc(Cl)cc1Cl`, the cytotoxicity at 70.5 h is -1.39%.

Consider `O=C(NCC1(O)CCC1)c1c(O)cc(F)cc1F`, for which the cytotoxicity at 70.5 h came to 13.9%.

Turning to `CSCC(=O)N1CCOC(c2nc(C(C)C)n[nH]2)C1` (configuration not stated), the cytotoxicity at 70.5 h was -7.67%.

Consider `CC1(C)CN(C(=O)c2cc(F)cc3[nH]cnc23)CCS1`, for which the cytotoxicity at 70.5 h was -11%.

For `Cc1noc(NCc2cn(C)nc2-c2ccncc2)n1`, the cytotoxicity at 70.5 h is -11.4%.

As for `CCN1CCCCC1C(=O)N1CCN(C(=O)OC)CC1` (configuration not stated), the cytotoxicity at 70.5 h is -5.22%.

As to `CCN1CCCCC1C(=O)N1CCC(OCCOC)CC1` (configuration not stated), the cytotoxicity at 70.5 h is 1.39%.

On to `CC(=O)Nc1cccc(CN2CCN(C3=NCC(C)(C)S3)CC2)c1`, for which the cytotoxicity at 70.5 h is -10.7%.

Consider `COC(=O)N1CCCC(C(=O)NCCc2c[nH]c3cc(C)ccc23)C1` (configuration not stated), for which the cytotoxicity at 70.5 h is -10.8%.

Turning to `Cc1ccc(CN(C)C(=O)CN2CCc3ccccc3C2)o1`, the cytotoxicity at 70.5 h is -6.98%.

Consider `OCc1cccc(CNCc2cccc3c2OCCO3)c1`, for which the cytotoxicity at 70.5 h was -1.29%.

For the compound `Cc1cc(C(=O)N(CC(=O)O)CC(C)C)ccc1F`, the cytotoxicity at 70.5 h was -7.96%.

With `O=C1CCC(=O)N1CCn1nnc(-c2ccc(Br)cc2)n1`, the cytotoxicity at 70.5 h is -2.01%.

As to `COc1ccc(C)cc1CN(CC(N)=O)C(C)C`, the cytotoxicity at 70.5 h was -3.29%.

`CCN(Cc1ccccn1)C1CCN(c2ccccc2)C1=O` (configuration not stated): the cytotoxicity at 70.5 h is -5.06%.

Regarding `Cc1nn(C)c(C)c1C1CCCN1C(=O)c1ccc(C(N)=O)s1` (configuration not stated), the cytotoxicity at 70.5 h is 17.5%.

Consider `Cc1nccc(CNC(=O)NC(c2ncc(C)s2)C2CC2)n1` (configuration not stated), for which the cytotoxicity at 70.5 h came to 17.4%.

`O=C(NCCOc1cccc(Cl)c1Cl)N1CCC2(CC1)OCCO2`: the cytotoxicity at 70.5 h is -4.01%.

Consider `Cc1nc(C(C)C)sc1C(C)N(C)C(=O)c1ccc(=O)n(C)n1` (configuration not stated), for which the cytotoxicity at 70.5 h is -1.77%.

In the case of `CCCOc1cc(CNC(=O)Nc2cccc(C(C)=O)c2)ccn1`, the cytotoxicity at 70.5 h was -0.91%.

As to `CCNC(=O)c1ccc(NC2CCOC3(CCCCC3)C2)nn1` (configuration not stated), the cytotoxicity at 70.5 h stood at 16.8%.

In the case of `CCCOc1cc(CNC(=O)Nc2ccc(C)cc2)ccn1`, the cytotoxicity at 70.5 h is -2.77%.

On to `CNS(=O)(=O)CC(=O)NCc1cc2c(s1)CCC(C)(C)C2`, for which the cytotoxicity at 70.5 h is -1.59%.

For `CNS(=O)(=O)CC(=O)NCc1cc2c(s1)CCCCC2`, the cytotoxicity at 70.5 h was -1.17%.

As to `NC(=O)COc1cccc(Cn2cc(Br)cn2)c1`, the cytotoxicity at 70.5 h was -1.2%.

Take `NC(=O)CN1CCc2c(Br)ccc(F)c2C1`: the cytotoxicity at 70.5 h is 3.38%.

Consider `CNC(=O)NC(=O)CN1CCc2c(Br)ccc(F)c2C1`, for which the cytotoxicity at 70.5 h was -0.281%.

With `Cn1nc(C2CCN(C(=O)CN3CCCCC3)CC2)c2cccnc21`, the cytotoxicity at 70.5 h is -4.57%.

In the case of `Cc1n[nH]cc1CNCC1(c2ccc3c(c2)OCO3)CCOCC1`, the cytotoxicity at 70.5 h is -5.66%.

Consider `Cc1n[nH]cc1CNCC1(c2cccc(F)c2)CCOCC1`, for which the cytotoxicity at 70.5 h is -5.63%.

Consider `O[C@@]1(c2ccccn2)CC[C@H]2CN(Cc3ccccn3)C[C@H]21`, for which the cytotoxicity at 70.5 h was -0.173%.

In the case of `c1cc2nccc(CC3CCCN(C4CCOCC4)CC3)c2cn1` (configuration not stated), the cytotoxicity at 70.5 h is -1.46%.
